Assay results from patent US20230295201A1 (Gilead Sciences, Inc., priority 2020, published 2023).
Like-named read-outs stand apart in the source and are kept apart here.

Key:
Assay type in all cases: cell-based
[1] = tested on: RSV strain A2; assay: RSV HEp-2 EC50 (infectious cytopathic cell protection assay); settings: HEp-2 cells, RSV A2, 4 days, read-out: RSV HEp-2 EC50
In short: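 Percent inhibition of RSV-induced cytopathic effect came from remaining cell viability (CellTiter-Glo luminescence) after 4 days at 37° C. Compounds in 3-fold serial dilutions were exposed to an infectious mix of titered A2 virus and HEp-2 cells at 50,000/ml, with 0% and 100% inhibition control standards.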

[2] = tested on: HRV16; assay: HRV16 HELA EC50 (cytopathic effect in H1-HeLa cells)
Method: H1-HeLa cells, cultured in complete DMEM medium containing 10% heat-inactivated FBS and 1% Penicillin/Streptomycin, were seeded in 96 well plates at 3000 cells/well one day prior to compound dosing and infection. The antiviral activity of each compound was measured in triplicate. Compounds were added directly to the cell cultures in serial 3-fold dilutions using the HP300 digital dispenser (Hewlett Packard, Palo Alto, CA) immediately prior to infection. The plates were transferred to BSL-2 containment and the appropriate dilution of virus stock, previously determined by titration and prepared in cell culture media, was added to test plates containing cells and serially diluted compounds. Each plate included 6 wells of infected untreated cells and 6 wells of uninfected cells that served as 0% and 100% virus inhibition control, respectively. Following the infection, test plates were incubated for 96 h in a tissue culture incubator set to 33° C./5% CO2. Following incubation, the H1-HeLa cells were removed from incubation and allowed to equilibrate to 25° C. Cell viability was determined by removing 100 μL of culture medium and adding 100 μL of Cell-Titer Glo viability reagent. The mixtures were incubated on a shaker for 10 minutes at 25° C., and the luminescence signal was quantified on an Envision luminescence plate reader.

[3] = tested on: DENV2 replicon; assay: DENV-2 Huh-7 Rep EC50 (replicon luminescence); settings: read-out: DENV-2 Huh-7 Rep EC50
Method: In 384 well plates (Greiner, Cat #781091), compounds were acoustically transferred at 200 nl per well in a 8 compound (4 replicates) or 40 compound dose response format (3 replicates). For all plates tested, Balapiravir, GS-5734 and NITD008 were included as positive inhibition controls alongside 0% inhibition, DMSO-only negative control wells. Following compound addition, Huh-7 cells containing the DENV2 replicon construct were harvested following standard cell culture procedures and were adjusted to a concentration of 1.25E5 cells/mL in cell culture media composed of cDMEM without genticin. 40 μL of the cell stock was then added to each well for a final cell density of 5,000 cells/well. Cell and compound mixtures were incubated at 37° C./5% CO2 for 48 hours. Prior to harvesting cells, EnduRen Live Cell Substrate (Promega, Cat #E6481) was prepared by suspending 3.4 mg into 100 uL of DMSO to generate a 60 mM stock solution. The stock solution was then diluted 1:200 in pre-warmed cDMEM and 10 uL of this diluted solution was added to each well of the 384 well plates. Plates were then centrifuged at 500 rpm briefly and were placed on a plate shaker for 2 min. Following mixing, plates were incubated at […] for 1.5 hours prior to measuring luminescence on an Envision luminometer.

[4] = tested on: RSV A2; assay: RSV NHBE EC50 (RSV A2 antiviral assay in normal human bronchial epithelial cells); settings: NHBE cells, RSV A2, 4 days, read-out: RSV NHBE EC50
[5] = human respiratory syncytial virus, HEp-2, 96 h
[6] = 96 h, H1-HeLa cells, 33° C., read-out: HRV16 HELA EC50
[7] = Dengue virus, DENV2, Huh-7, 48 h, Huh-7 replicon cells, 48 hours
[8] = human respiratory syncytial virus, NHBE, 96 h
[9] = H1-HeLa cells, 96 h, 33° C.; read-out: HRV16 HELA EC50
[10] = human respiratory syncytial virus, 96 h
[11] = Dengue virus, DENV2, Huh-7, 48 h

Structure (SMILES)	EC50 [1, 5]	EC50 [2, 6]	EC50 [3, 7]	EC50 [4, 8]	EC50 [1]	EC50 [2, 9]	EC50 ([3]; Huh-7 replicon cells, 48 hours)	EC50 [4]	EC50 [1, 10]	EC50 [3, 11]	EC50 [4, 10]
CCCCCCCCCCCCCCCCOC(=O)[C@H](C)NP(=O)(OC[C@@]1(C#N)O[C@@H](c2ccc3c(N)ncnn23)[C@H](O)[C@@H]1O)Oc1ccccc1 (stereo partly drawn) [Example 199, hexadecyl ((((2R,3S,4R,5S)-5-(4-aminopyrrolo[2,1-f][1,2,4]triazin-7-yl)-2-cyano-3,4-dihydroxytetrahydrofuran-2-yl)methoxy)(phenoxy)phosphoryl)-L-alaninate]	1.12 µM	0.738 µM	37.8 µM	0.033 µM							
N#C[C@]1(COP(=O)(NCC(=O)OC2CCCC2)Oc2ccccc2)O[C@@H](c2ccc3c(N)ncnn23)[C@H](O)[C@@H]1O (single isomer, unassigned) [Example 114]					0.974 µM	4.7 µM	> 50 µM	0.255 µM			
CCCCCCCCCCCCCCCCCCOC[C@H](COC(=O)C(C)NP(=O)(OC[C@@]1(C#N)O[C@@H](c2ccc3c(N)ncnn23)[C@H](O)[C@@H]1O)Oc1ccccc1)OCc1ccccc1 (stereo partly drawn) [Example 190, (R)-2-(benzyloxy)-3-(octadecyloxy)propyl ((((2R,3S,4R,5S)-5-(4-aminopyrrolo[2,1-f][1,2,4]triazin-7-yl)-2-cyano3,4-dihydroxytetrahydrofuran-2-yl)methoxy)(phenoxy)phosphoryl)alaninate]	0.136 µM	2.64 µM	> 100 µM	2.06 µM							
CCOC(=O)[C@H](Cc1ccccc1)NP(=O)(OC[C@@]1(C#N)O[C@@H](c2ccc3c(N)ncnn23)[C@H](O)[C@@H]1O)Oc1ccccc1 (stereo partly drawn) [Example 3, (2S)-ethyl 2-(((((2R,3S,4R,5S)-5-(4-aminopyrrolo[2,1-f][1,2,4]triazin-7-yl)-2-cyano-3,4-dihydroxytetrahydrofuran-2-yl)methoxy)(phenoxy)phosphoryl)amino)-3-phenylpropanoate]	4.09 µM	8.96 µM	> 100 µM	1.69 µM							
CC(C)C(=O)Nc1ncnn2c([C@@H]3O[C@](C#N)(CO[P@@](=O)(N[C@@H](C)C(=O)OC4CCCCC4)Oc4ccccc4)[C@@H](O)[C@H]3O)ccc12 [Example 235, cyclohexyl ((S)-(((2R,3S,4R,5S)-2-cyano-3,4-dihydroxy-5-(4-isobutyramidopyrrolo[2,1-f][1,2,4]triazin-7-yl)tetrahydrofuran-2-yl)methoxy)(phenoxy)phosphoryl)-L-alaninate]	0.114 µM	1.1 µM	3.96 µM	0.51 µM							
C[C@H](NP(=O)(OC[C@@]1(C#N)O[C@@H](c2ccc3c(N)ncnn23)[C@H](O)[C@@H]1O)Oc1ccccc1)C(=O)OC1CCC1 (some centres unmarked) [Example 51]					0.09 µM	0.357 µM	9.21 µM	> 1.24 µM			
C[C@H](NP(=O)(N[C@@H](C)C(=O)OCc1ccccc1)OC[C@@]1(C#N)O[C@@H](c2ccc3c(N)ncnn23)[C@H](O)[C@@H]1O)C(=O)OCc1ccccc1 [Example 219]						6.04 µM			1.76 µM	> 50 µM	0.178 µM
CC(C)OP1(=O)OC[C@@]2(C#N)O[C@@H](c3ccc4c(N)ncnn34)[C@H](O)[C@@H]2O1 (stereo partly drawn) [Example 163, (4aR,6S,7S,7aS)-6-(4-aminopyrrolo[2,1-f][1,2,4]triazin-7-yl)-7-hydroxy-2-isopropoxydihydro-4H-furo[3,2-d][1,3,2]dioxaphosphinine-4a(6H)-carbonitrile 2-oxide]						> 50 µM			13.3 µM	> 50 µM	9.21 µM
CC(C)OC(=O)C[C@H](C)NP(=O)(OC[C@@]1(C#N)O[C@@H](c2ccc3c(N)ncnn23)[C@H](O)[C@@H]1O)Oc1ccccc1 (stereo partly drawn) [Example 99, (3S)-isopropyl 3-(((((2R,3S,4R,5S)-5-(4-aminopyrrolo[2,1-f][1,2,4]triazin-7-yl)-2-cyano-3,4-dihydroxytetrahydrofuran-2-yl)methoxy)(phenoxy)phosphoryl)amino)butanoate]	> 50 µM	> 50 µM	> 50 µM	> 5 µM							
C[C@H](NP(=O)(OC[C@@]1(C#N)O[C@@H](c2ccc3c(N)ncnn23)[C@H](O)[C@@H]1O)Oc1ccccc1)C(=O)OCC1COC1 (stereo partly drawn) [Example 49, oxetan-3-ylmethyl ((((2R,3S,4R,5S)-5-(4-aminopyrrolo[2,1-f][1,2,4]triazin-7-yl)-2-cyano-3,4-dihydroxytetrahydrofuran-2-yl)methoxy)(phenoxy)phosphoryl)-L-alaninate]	1.08 µM	8.72 µM	> 50 µM	2.43 µM							
C[C@H](NP(=O)(OC[C@@]1(C#N)O[C@@H](c2ccc3c(N)ncnn23)[C@H](O)[C@@H]1O)Oc1ccccc1)C(=O)OC1CCCCCCC1 (stereo partly drawn) [Example 171, cyclooctyl ((((2R,3S,4R,5S)-5-(4-aminopyrrolo[2,1-f][1,2,4]triazin-7-yl)-2-cyano-3,4-dihydroxytetrahydrofuran-2-yl)methoxy)(phenoxy)phosphoryl)-L-alaninate]	0.22 µM	0.582 µM	31.5 µM	0.375 µM							
C[C@H](NP(=O)(OC[C@@]1(C#N)O[C@@H](c2ccc3c(N)ncnn23)[C@H](O)[C@@H]1O)Oc1ccccc1)C(=O)OC1CCC(C)(C)CC1 (stereo partly drawn) [Example 183, 4,4-dimethylcyclohexyl ((((2R,3S,4R,5S)-5-(4-aminopyrrolo[2,1-f][1,2,4]triazin-7-yl)-2-cyano-3,4-dihydroxytetrahydrofuran-2-yl)methoxy)(phenoxy)phosphoryl)-L-alaninate]	0.08 µM	0.173 µM	17.3 µM	1.2 µM							
C[C@H](NP(=O)(N[C@@H](C)C(=O)OC1CCCCC1)OC[C@@]1(C#N)O[C@@H](c2ccc3c(N)ncnn23)[C@H](O)[C@@H]1O)C(=O)OC1CCCCC1 [Example 14]						12.4 µM			3.65 µM	> 100 µM	1.27 µM
CCCCCOC(=O)C[C@H](N[P@@](=O)(OC[C@@]1(C#N)O[C@@H](c2ccc3c(N)ncnn23)[C@H](O)[C@@H]1O)Oc1ccccc1)C(=O)OCCCCC [Example 216]					4.23 µM	32.8 µM	33 µM	> 4.39 µM			
CC[C@H](NP(=O)(OC[C@@]1(C#N)O[C@@H](c2ccc3c(N)ncnn23)[C@H](O)[C@@H]1O)Oc1ccccc1)C(=O)OC1CCCC1 (single isomer, unassigned) [Example 111]		25.3 µM	> 50 µM		3.97 µM			> 1.48 µM			
CCC(CC)COC(=O)[C@@H](C)NP(=O)(OC[C@@]1(C#N)O[C@@H](c2ccc3c(N)ncnn23)[C@H](O)[C@@H]1O)Oc1ccccc1 (single isomer, unassigned) [Example 84]					8.07 µM	19.9 µM	> 50 µM	1.13 µM			
CC(C)(C)C(=O)OCCNP(=O)(NCCOC(=O)C(C)(C)C)OC[C@@]1(C#N)O[C@@H](c2ccc3c(N)ncnn23)[C@H](O)[C@@H]1O [Example 208]	> 32.8 µM	> 50 µM		> 4.22 µM						> 50 µM	
